Assay results published in patent publication US20040076659A1, “Additive for livestock feeds” (priority 1994, published 2004).

Legend:
[1] = test system: wethers; assay: In vivo digestibility trial, timothy hay sprayed with Tween 80; conditions: sheep; about 0.3% Tween 80 in the ration
Protocol: Four […] weighing (72.5±15.0 kg) fitted with both rumen and duodenal cannula, were offered chopped medium quality timothy hay ad libitum. The hay was either sprayed with 500 ml water or 50 ml of […] dissolved in 500 ml of water. The feed was offered in two equal portions, at 08:30 and 20:30 hr. Water was available ad libitum. The experiment was designed as a 2×2 latin square with two 14-day adaptation, two 7-day collection periods. Estimates of the rates of passage of the two treated hays were made using chromium mordanted fibre (Cr) for the particulate phase and cobalt-ethylene diaminetetracetic acid (Co-EDTA) for the liquid phase. The method of Uden et al., “Investigation of chromium, cerium and cobalt as markers in digesta: Rate of Passage studies,” J. Sci. of Food and Agriculture 31:625-632 (1980), was used in the preparation of both markers. The sheep were adapted to the feed in individual pens, and then moved into digestibility cages for total collection and marker infusion. During the collection period, records of feed intake, faecal and urine output were maintained. 250 g subsamples of the faeces were collected daily, subsampled for DM determination, while the rest was dried under a drought oven. Urine was collected under 1N sulphuric acid. On the last day of the collection period, each sheep was given 50 g of Cr-mordanted fibre 1 hr prior to the evening feeding. In addition, 250 ml of Co-EDTA (0.1 g/ml) was infused intraruminally and the animals were then fed. Rumen digesta and duodenal sampling commenced 4 hr after dosing and continued at the same interval for 96 hr. Two samples of rumen fluid were collected: The first rumen fluid samples (30 ml) were preserved for microbial protein estimations by adding 7.5 ml of 0.9% NaCl in 37% formaldehyde solution. The samples were then stored at -20° C. after the preparation of a bacterial pellet by centrifugation at 27,000 g max for 15 min. A portion of the second rumen fluid and faecal samples was dried at 80° C. and ground in a coffee grinder (Braun, Inc. MA) for DM and Cr determination (Uden et al., 1980). Cr concentration in the samples was determined in duplicate by atomic absorption spectrophotometer (Perkin Elmer 560) using Cr standards (Fisher Scientific Co. NJ). The rest of the second rumen fluid sample was centrifuged at 10,000 g max for 10 min and the supernatants analyzed directly for cobalt using 0.1N HCL as the blank. Standards were prepared using cobalt chloride (Fisher Scientific Co. NJ). Marker concentrations were expressed per gram of dry sample. Other analyses included: acid and neutral detergent fibre (Goering and Van Soest, “Forage fiber analysis,” Agric. Handbook No. 379, p. 12 (1970)), total N (Parkinson and Allen, “A wet oxidation procedure suitable for the determination of nitrogen and mineral nutrients in biological materials,” Comm. Soil Sci. Plant Anal. 6:1 (1975)) for RNA concentrations of the rumen bacterial pellets and duodenal samples.

[2] = test system: rumen microbial proteinases; assay: Protease activity of mixed rumen microbial cell enzyme source (casein substrate); assay type: biochemical, cows
Protocol: Two rumen-fistulated, nonlactating cows averaging 623±12.5 kg in weight were fed 5 kg dry matter (DM) of low quality timothy hay twice daily. About 2.5L of rumen fluid was collected through the fistula 4 hrs after the morning feeding at 07:00 hrs. Bulk feed particles were removed by sieving the fluid through a 0.5 mm strain. The fluid was then composited and then stored in a prewarmed (37° C.) thermal container.
A microbial powder was prepared using the acetone-butanol extraction procedure outlined by Mahadevan et al., “Preparation of protease from mixed rumen microorganisms and its use for the in vitro determination of true protein in feedstuffs,” Can. J. Anim. Sci. 67:55 (1987). About 500 g of this powder was prepared and stored at −20° C. Extraction of the proteases was accomplished by stirring 250 g of the powder with 1L of 4° C. cold water (for 1 hr) and then proceeding along Mahadevan's extraction procedure. Only extracts from the filtration with an XM-300 Amicon Filter, (approx. 300 000 molecular weight cutoff—under nitrogen gas), were made, washed twice with distilled water and the retentate freeze dried. This was referred to as the mixed microbial cell enzyme source. It was used in the protein adhesion tests and also in the parallel thiol and protease activity determinations.
Ten grams of the mixed microbial cell enzyme was dissolved in 100 ml warm (37° C.) 0.1 M phosphate buffer, pH 6.8, and used as an enzyme inoculant. The assay matrix consisted of 1 ml enzyme source, 1 ml 2% casein solution, 1 ml 01 M phosphate buffer and 1 ml of either the relevant level of surfactant or an equivalent amount of buffer. Ten levels of the two surfactants, polyoxyethylene sorbitan monoleate (Tween 80) and polyoxyethylene sorbitan monastearate (Tween 60) were tested, viz 0, 0.08, 0.16, 0.24, 0.32, 0.4, 0.8, 1.2, 1.6, and, 2.0% surfactant in the assay mixture.
The protease activity incubations were performed in 50 ml plastic centrifuge tubes, at 37° C. and under a stream of carbon dioxide gas. After 1.5 hr, 1 ml of the assay mixture was removed for the determination of thiols (SH) and disulfides (SS) (Sasago et al., “Determination of sulfhydryl and disulfide groups in milk by p-chloromercuribenzoate-diathizone method,” J. Dairy Sci. 46:1348-1351 (1963)). At the end of 2 hr incubation, the reaction was stopped with 1 ml of 15% TCA (trichloroacetic acid) solution, cooled to 4° C. under an icebath, and centrifuged at 10,000 for 10 min. The free amino acids in the supernatant were assayed using the ninhydrin method (Rosen, “a Modified Colorimetric Analysis For Amino Acids,” Arch. Biochim. Biophys. 67:10 (1957)). The optimal surfactant inclusion level was calculated by direct linear plots on the assumption that the Michaellis-Menten equation applied.

[3] = direct linear plots, Michaelis-Menten assumed

In the case of “polyoxyethylene sorbitan monoleate [Tween 80]”, the “Digestibility, Acid detergent fibre” value [1] was 52.68b (0.4) %, the “Digestibility, Crude protein” value [1] was 61.25b (0.5) % and the “Digestibility, Dry matter” value [1] was 64.70b (0.8) %. The “Digestibility, Neutral detergent fibre” value [1] was 60.63b (0.7) %, the “Increase in digestibility compared to control” value [1] was 18% and the “Increase in intake compared to control” value [1] was 5%. For the same substance, the Intake [1] was 2.06b (0.1) % of the body weight, the “Initial rate of proteinase activation” value ([2]; control=0) was 163.5% and the “Km (additive conc.), proteinase activation” value [2, 3] was 0.20 ± 0.03b %. For the same substance, the “Vmax (maximum proteinase activation)” value [2, 3] was 166.8 ± 8.9b %/unit additive conc.
